From ChEMBL document CHEMBL1156829 (Proc Natl Acad Sci U S A, 2008)
pEC50: −log10 of the molar value.

What was measured:
Plasmodium falciparum [1] = experiment: NOVARTIS: Inhibition of Plasmodium falciparum 3D7 (drug-susceptible) proliferation in erythrocyte-based infection assay; format: functional, organism-based
Plasmodium falciparum [2] = experiment: NOVARTIS: Inhibition of Plasmodium falciparum W2 (drug-resistant) proliferation in erythrocyte-based infection assay; format: functional, organism-based; conditions: for pEC50: read-out: EC50
[3] = NOVARTIS: Cytotoxicity against human hepatocellular carcinoma cell line (Huh7); format: toxicity, cell-based, Huh-7; conditions: Huh7 cells (hepatocellular carcinoma cell line)

Row | SMILES | pEC50 (Plasmodium falciparum [1]; Plasmodium falciparum, 3D7) | pEC50 (Plasmodium falciparum [2]; Plasmodium falciparum, W2) | CC50 [3] | EC50 (Plasmodium falciparum [2]) | pEC50 (Plasmodium falciparum [1]) | pEC50 (Plasmodium falciparum [2])
1 | Cc1cc(C)n(CC(O)Cn2c3ccc(Cl)cc3c3cc(Cl)ccc32)n1 (configuration not stated) | 5.99 | 6.47 | 45500 nM |  |  | 
2 | O=C(O)c1ccc(NC(=O)c2ccc(N3C(=O)C4C5C=CC(C5)C4C3=O)cc2)cc1 (configuration not stated) | < 4.95 | < 4.95 | > 100000 nM |  |  | 
3 | Fc1ccc(-c2c[n+](-c3ccccc3)c3n2CCS3)cc1 | 6.12 | 5.97 | > 100000 nM |  |  | 
4 | COc1ccc(C(=O)Oc2ccccc2-c2nc3ccccn3c2NC(C)(C)CC(C)(C)C)cc1 | < 5.80 | 8.12 | > 10000 nM |  |  | 
5 | O=[N+]([O-])c1cc(Br)c(Nc2ccccc2)c([N+](=O)[O-])c1 | 6.78 | 7.12 | 6600 nM |  |  | 
6 | O=C(NCCc1ccccc1)c1cnc(NCCC2=CCCCC2)nc1NCC1CCCCC1 | 6.36 | 6.40 | > 10000 nM |  |  | 
7 | COc1ccc(OC)c(-c2ccc(O)c(CNCCc3ccc(Cl)cc3)c2)c1 | 6.01 | 6.13 | > 10000 nM |  |  | 
8 | CC(=O)N1c2ccc(C)cc2C(C)(c2ccccc2)CC1(C)C (configuration not stated) | 6.11 | 6.17 | 45400 nM |  |  | 
9 | CCc1ccc(C2C(C(=O)Nc3ccccc3)=C(C)Nc3c(C(=O)Nc4ccc(C)cc4)cnn32)cc1 (configuration not stated) | 5.82 | 6.26 | > 100000 nM |  |  | 
10 | N#Cc1cc(Oc2ccc(-c3cnc4ccccc4n3)cc2)nc2ccccc12 | < 4.90 | 5.21 | > 100000 nM |  |  | 
11 | COc1ccc(-n2c(CNC(=O)c3cccc4ccccc34)n[nH]c2=S)cc1 | 5.96 | 5.72 | > 100000 nM |  |  | 
12 | COc1ccc(C2CC(=O)C3=C(C2)NC(C)=C(C(=O)OC2CCCCC2)C3c2ccc(F)cc2)cc1OC (configuration not stated) | 6.86 | 7.28 | 15200 nM |  |  | 
13 | O=c1c2c3c(sc2ncn1CCCc1ccccc1)CC(N1CCC(N2CCCCC2)CC1)CC3 (configuration not stated) | 6.41 | 5.69 | 14800 nM |  |  | 
14 | COc1ccc2c(c1)OC(O)(C(F)(F)C(F)(F)F)CC2=O (configuration not stated) | 6.35 | 6.00 | 49700 nM |  |  | 
15 | CCCOC(=O)C1=C(C)NC2=C(C(=O)CC(c3ccc(OC)c(OC)c3)C2)C1c1ccc(Cl)c(Cl)c1 (configuration not stated) | 6.84 | 7.31 | 52600 nM |  |  | 
16 | C(=NNc1nc2ccccc2[nH]1)c1ccc2c(c1)OCO2 | 6.73 | 6.54 | > 100000 nM |  |  | 
17 | CC(=NNC(N)=S)C(C)=NNC(N)=S | 6.24 | 6.34 | > 100000 nM |  |  | 
18 | Cn1c(=O)[nH]c(=O)c2c1nc(N1CCCCCC1)n2CC(O)COc1ccc([N+](=O)[O-])cc1 (configuration not stated) | < 4.90 | 5.73 | > 100000 nM |  |  | 
19 | CNc1nc(Cl)nc(Nc2ccccc2)n1 | < 6.32 | 5.78 | > 10000 nM |  |  | 
20 | CCOc1ccc(CN(CCC(c2ccccc2)c2ccccc2)C(=O)Nc2ccccc2C)cc1 | < 5.87 | 5.73 | > 10000 nM |  |  | 
21 | CC1=C(C(=O)OC2CCCCC2)C(c2ccc(F)cc2)C2=C(CC(c3ccccc3)CC2=O)N1 (configuration not stated) | 5.43 | 6.19 | > 100000 nM |  |  | 
22 | CCCCNC(=O)c1ccc2c(c1)N=C(CC(C)c1ccccc1)N(C1CCCCC1)C2 (configuration not stated) | 5.84 | 5.09 | 48700 nM |  |  | 
23 | Clc1ccccc1-c1nc([P+](c2ccccc2)(c2ccccc2)c2ccccc2)c(N2CCOCC2)o1 | 6.46 | 6.62 | 10100 nM |  |  | 

Row | SMILES | pEC50 (Plasmodium falciparum [1]; Plasmodium falciparum, 3D7) | pEC50 (Plasmodium falciparum [2]; Plasmodium falciparum, W2) | CC50 [3] | EC50 (Plasmodium falciparum [2]) | pEC50 (Plasmodium falciparum [1]) | pEC50 (Plasmodium falciparum [2])
24 | Cc1ccc(-n2c(SCc3cccc(C)c3)nnc2C(Cc2ccccc2)NC(=O)NC(C)(C)C)cc1 (configuration not stated) | 6.13 | 6.00 | > 10000 nM |  |  | 
25 | COc1ccc(-n2cc(-c3ccc(C)cc3)nc2SCC(=O)Nc2ccc(C)cc2)cc1 | 5.65 | < 5.90 | > 10000 nM |  |  | 
26 | COc1cc2c(cc1OC)C(CCCCCl)=NC(C)(C)C2 | 6.46 | < 4.90 | > 100000 nM |  |  | 
27 | COc1cccc(-c2ccc(O)c(CNC(C)c3cccc4ccccc34)c2)n1 (configuration not stated) | 6.55 | 7.32 | 61200 nM |  |  | 
28 | CON(C)C=C(C(=O)Nc1ccc(C(F)(F)F)cc1)C(=O)Nc1ccc(C(F)(F)F)cc1 | 6.18 | 6.29 | > 10000 nM |  |  | 
29 | CCCc1c(CC)c(=N)c2ccccc2n1C | 6.12 | 5.94 | > 100000 nM |  |  | 
30 | CCn1nc(/C=C/c2ccccc2)nc2c(=O)n(C)c(=O)nc1-2 | < 5.48 | < 5.00 | 42000 nM |  |  | 
31 | CC(=O)NC1=NN(C(C)=O)C(c2ccc(Br)cc2)S1 (configuration not stated) | < 5.12 | 6.01 | > 100000 nM |  |  | 
32 | COc1cc(OC)cc(-n2nc(C(=O)NCCCN3CC(C)CC(C)C3)c3ccccc3c2=O)c1 (configuration not stated) | < 4.90 | 5.61 | > 100000 nM |  |  | 
33 | N#C/C(=C\c1ccccc1OCc1ccc(Cl)cc1Cl)c1nc2ccccc2[nH]1 | 6.46 | < 6.11 | > 10000 nM |  |  | 
34 | c1ccc2c(c1)[nH]c1c(NCCN3CCCCC3)ncnc12 | 6.15 | 6.10 | 49900 nM |  |  | 
35 | Fc1ccc(CN2CCc3nc(N4CCCCC4)sc3C2)cc1F | 5.96 | 5.97 | > 100000 nM |  |  | 
36 | CCOCCCN(C(=O)C(F)(F)F)C(C(=O)NC1CCCCC1)c1ccncc1 (configuration not stated) | 5.73 | < 5.79 | > 10000 nM |  |  | 
37 | COc1ccccc1-c1nnc(Nc2nc3cc4c(cc3s2)OCO4)o1 | < 5.98 | < 5.90 | > 10000 nM |  |  | 
38 | c1ccc(N=c2sc(-c3ccccc3)cn2CCCCCCn2cc(-c3ccccc3)sc2=Nc2ccccc2)cc1 | 6.13 | 6.28 | > 10000 nM |  |  | 
39 | Cc1ccc(C)c(N2C(=O)CC(Cc3ccc(Cl)cc3)C2=O)c1 (configuration not stated) | < 5.90 | 5.91 | > 10000 nM |  |  | 
40 | O=C(NCCCCNc1ccnc2cc(Cl)ccc12)c1ccco1 | 6.14 | 5.85 | > 13100 nM |  |  | 
41 | CCOc1ccc(C=C(C#N)c2nc3ccccc3[nH]2)cc1OC | 6.29 | 6.58 | > 100000 nM |  |  | 
42 | Cc1cccc(-c2ccc(NC(=O)C3CCN(Cc4cnc(C)nc4)CC3)cc2)c1 | < 5.16 | < 4.90 | > 100000 nM |  |  | 
43 | CCOC(=O)C1=C(c2ccccc2)N=c2sc(=Cc3cc(OC)c(OC)c(OC)c3)c(=O)n2C1c1c(OC)ccc2ccccc12 (configuration not stated) | < 5.11 |  | > 100000 nM | No fit |  | 
44 | COC(=O)c1sc2nc(CN(C)Cc3nccs3)ccc2c1NC(=O)c1ccc(C)s1 | < 5.88 | 5.94 | > 2840 nM |  |  | 
45 | CC(=O)N1CCC(N(C(=O)Nc2c(F)cccc2F)C(C)C)CC1 | < 4.90 | 6.20 | > 100000 nM |  |  | 
46 | Oc1c(C(Nc2ccccn2)c2ccncc2)ccc2cccnc12 (configuration not stated) | 6.08 | 6.05 | > 10000 nM |  |  | 

Row | SMILES | pEC50 (Plasmodium falciparum [1]; Plasmodium falciparum, 3D7) | pEC50 (Plasmodium falciparum [2]; Plasmodium falciparum, W2) | CC50 [3] | EC50 (Plasmodium falciparum [2]) | pEC50 (Plasmodium falciparum [1]) | pEC50 (Plasmodium falciparum [2])
47 | Clc1ccc(C[n+]2cc(-c3ccccc3)n3c2CCC3)cc1Cl | 6.30 | 6.80 | > 55700 nM |  |  | 
48 | CCOc1ccc(-c2nc(NC(=O)Cc3cccc(OC)c3)sc2C)cc1 | 6.56 | 6.38 | > 10000 nM |  |  | 
49 | CCCC(=O)N1c2ccc(OC)cc2-c2c(ssc2=S)C1(C)C | 6.10 | 6.06 | > 100000 nM |  |  | 
50 | COc1cccc(C(Nc2cc(C)ccn2)c2ccc3cccnc3c2O)c1 (configuration not stated) | 5.95 | 6.25 | > 93500 nM |  |  | 
51 | CCCN1CCN(C(=O)CCNC(=O)Cn2cnc3ccccc3c2=O)CC1 | < 5.90 | 5.80 | > 10000 nM |  |  | 
52 | CCOC(=O)c1c[nH]c2ccc(C)cc2c1=O | 5.57 | 5.56 | > 100000 nM |  |  | 
53 | O=C(CN1CCC(NC(=O)c2cccc(F)c2)CC1)NC1CC1 | < 5.90 | 7.57 | > 10000 nM |  |  | 
54 | CN[C@H]1C[C@@H]2O[C@](C)([C@H]1O)n1c3ccccc3c3c4c(c5c6ccccc6n2c5c31)C(=O)NC4 | 7.26 | 7.28 | 32.3 nM |  |  | 
55 | Cc1cc(Nc2cc(Cl)cc(Cl)c2)n2nc(C)nc2n1 | 5.88 | 5.73 | > 100000 nM |  |  | 
56 | Cc1nc(N)sc1C(=O)NN=Cc1cccc(Br)c1 | < 5.90 | 6.09 | > 10000 nM |  |  | 
57 | CC[n+]1ccc(C=Cc2ccc(N(C)C)cc2)cc1 |  |  | > 84900 nM |  | 6.39 | < 5.35
58 | Cc1cc(N2CCCC2)nc2ccc(NC(=S)NCCN3CCc4ccccc4C3)cc12 | 7.36 | 6.20 | 21500 nM |  |  | 
59 | Cc1ccccc1C[n+]1cc(-c2ccc(Cl)cc2)n2c1CCC2 | 5.86 | 5.77 | > 100000 nM |  |  | 
60 | C/N=C(\N)Nc1nc(C)c2cc(OC)ccc2n1 | 6.18 | 6.14 | > 10000 nM |  |  | 
61 | COC(=O)C[S+]([O-])c1ccccc1 (configuration not stated) | 6.19 | 6.27 | > 10000 nM |  |  | 
62 | CC(C)c1nc(N2CCN(C(=O)Nc3ccccc3)CC2)c(C#N)c2c1COC(C)(C)C2 | 7.27 | 7.17 | > 100000 nM |  |  | 
63 | Brc1ccc(Nc2nc(NCC3CCCO3)c3ccccc3n2)cc1 (configuration not stated) | 6.33 | 6.46 | 9780 nM |  |  | 
64 | Cc1ccn2c(NC(C)(C)CC(C)(C)C)c(-c3ccccc3OC(=O)c3ccc(Cl)cc3)nc2c1 | 5.92 | 7.11 | > 8270 nM |  |  | 
65 | CC(=O)N(C1=C(N(C)C)C(=O)c2ccccc2C1=O)c1cc(C)cc(C)c1 | 7.64 | 7.38 | 2230 nM |  |  | 
66 | CCCC(=O)N1CCN(C(=O)c2nc(-c3ccccc3)nc(C(C)C)c2C(=O)OC)CC1C (configuration not stated) | 6.06 | 6.32 | > 8440 nM |  |  | 
67 | CCCN1/C(=C/c2sc3ccccc3[n+]2CC)C=Cc2ccccc21 | 6.09 | 5.87 | > 10000 nM |  |  | 
68 | Cc1ccc(-n2cc(C(=O)N(C)Cc3ccccc3)c3ccccc3c2=O)cc1C | < 5.01 | 5.53 | > 100000 nM |  |  | 
69 | CCCCCCN(C(=O)COCc1ccccc1)C(C)c1nc2ccccc2c(=O)n1-c1cccc(Cl)c1C (configuration not stated) | 5.93 | 6.22 | > 10000 nM |  |  | 
